According to ChEMBL document CHEMBL1201862, “PubChem BioAssay data set” (2004):
Calls of active or inactive are those of the source.

Assays:
Bcl-2-related protein A1 [1] = molecular target: T1, Bcl-2-related protein A1 (Mus musculus, UniProt Q07440); experiment: small-molecule antagonists of Bfl-1/BH3 interaction – biochemical, TR-FRET, mouse Bfl-1, confirmation (AID 621);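 also: TR-FRET binding of GST-Bfl-1 to FITC-labelled Bid peptide via terbium antibody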
T1 sequence (Q07440 whole entry): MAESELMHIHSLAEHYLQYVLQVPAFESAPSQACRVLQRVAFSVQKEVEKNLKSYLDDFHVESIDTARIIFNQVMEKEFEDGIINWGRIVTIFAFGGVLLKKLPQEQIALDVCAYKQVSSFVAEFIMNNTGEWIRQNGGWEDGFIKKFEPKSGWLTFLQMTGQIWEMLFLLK

Bcl-2-related protein A1 [2] = molecular target: T1, Bcl-2-related protein A1; experiment: displacement of Bid BH3 peptide from Bfl-1 – biochemical, fluorescence polarization, FITC-Bid, mouse, primary screen (AID 432)
[3] = molecular target: T2, Zinc finger protein mex-5 (Caenorhabditis elegans, UniProt Q9XUB2); experiment: potency of MEX-5 RNA-binding blockers – biochemical, C. elegans, fluorescence polarization, dose response (AID 1960)
T2 sequence (Q9XUB2 whole entry): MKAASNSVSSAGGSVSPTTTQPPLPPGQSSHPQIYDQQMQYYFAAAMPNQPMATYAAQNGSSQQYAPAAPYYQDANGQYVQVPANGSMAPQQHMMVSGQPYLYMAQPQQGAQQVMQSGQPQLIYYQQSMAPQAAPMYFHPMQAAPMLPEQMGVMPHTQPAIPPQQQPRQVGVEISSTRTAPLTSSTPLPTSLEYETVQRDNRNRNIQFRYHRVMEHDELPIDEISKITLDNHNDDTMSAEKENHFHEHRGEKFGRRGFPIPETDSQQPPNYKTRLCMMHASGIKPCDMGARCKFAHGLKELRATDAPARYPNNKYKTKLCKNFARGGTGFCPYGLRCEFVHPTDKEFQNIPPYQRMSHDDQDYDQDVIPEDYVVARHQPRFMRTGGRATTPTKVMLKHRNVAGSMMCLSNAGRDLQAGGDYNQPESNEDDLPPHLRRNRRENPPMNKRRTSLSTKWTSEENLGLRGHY

[4] = antibacterial activity against E. coli NEB5alpha – luminescence, counter-screen for MEX-5/POS-1 RNA-binding inhibitor project, dose response (AID 1959); assay type: functional
[5] = molecular target: T3, RNA-binding protein pos-1 (Caenorhabditis elegans, UniProt G5EF15); experiment: disruptors of C. elegans POS-1 RNA interaction – biochemical, fluorescence polarization, dose response (AID 1964);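 also: purified POS-1 fused to maltose binding protein made in E. coli; potency of compounds blocking POS-1 binding to fluorescent RNA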
T3 sequence (G5EF15 whole entry): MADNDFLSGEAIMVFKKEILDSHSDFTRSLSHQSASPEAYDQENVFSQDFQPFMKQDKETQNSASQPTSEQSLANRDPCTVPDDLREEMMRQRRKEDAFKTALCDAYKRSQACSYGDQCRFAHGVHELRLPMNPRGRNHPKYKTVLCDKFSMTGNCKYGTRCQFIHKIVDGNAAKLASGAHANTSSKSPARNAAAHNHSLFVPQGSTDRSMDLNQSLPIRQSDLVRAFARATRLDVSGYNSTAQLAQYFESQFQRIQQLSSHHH

NADPH oxidase 1 = molecular target: T4, NADPH oxidase 1 (Homo sapiens, UniProt Q9Y5S8); experiment: Late-stage luminescence-based cell-based dose response assay to identify inhibitors of NADPH oxidase 1 (NOX1): Purchased analogs 2.; assay type: functional
T4 sequence (Q9Y5S8 whole entry): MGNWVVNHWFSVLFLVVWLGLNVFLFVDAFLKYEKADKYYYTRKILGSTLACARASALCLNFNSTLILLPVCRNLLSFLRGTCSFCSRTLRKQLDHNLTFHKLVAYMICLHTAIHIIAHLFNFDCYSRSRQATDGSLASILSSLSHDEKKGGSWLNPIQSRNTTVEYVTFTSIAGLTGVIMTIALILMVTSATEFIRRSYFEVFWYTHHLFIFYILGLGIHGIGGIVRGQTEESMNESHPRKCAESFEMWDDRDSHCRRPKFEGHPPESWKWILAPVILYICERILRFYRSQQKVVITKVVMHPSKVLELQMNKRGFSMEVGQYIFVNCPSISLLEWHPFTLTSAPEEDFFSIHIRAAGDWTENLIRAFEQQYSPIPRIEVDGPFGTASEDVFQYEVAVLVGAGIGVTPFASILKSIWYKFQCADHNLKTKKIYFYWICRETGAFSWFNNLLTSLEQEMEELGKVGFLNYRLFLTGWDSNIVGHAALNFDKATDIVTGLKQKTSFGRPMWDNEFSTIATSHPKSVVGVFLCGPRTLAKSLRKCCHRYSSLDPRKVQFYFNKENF

[6] = molecular target: Voltage-gated N-type calcium channel alpha-1B subunit/Amyloid beta A4 precursor protein-binding family A member 1 (Homo sapiens, UniProt Q00975+Q02410); assay type: protein assay
[7] = molecular target: Diphosphomevalonate decarboxylase (Streptococcus pneumoniae serotype 2 (strain D39 / NCTC 7466), UniProt Q9FD53); experiment: diphosphomevalonate decarboxylase inhibitor confirmation – biochemical, cuvette format, coupled NADH fluorescence (AID 1028); assay type: functional
[8] = viability of uninfected HEp-2 cells – cell-based, HTS, cytotoxicity control for RSV inhibitor project, dose response (AID 2410); assay type: functional; conditions: human respiratory syncytial virus
[9] = M. tuberculosis H37Rv growth inhibitors, H37Rv strain (AID 1626); assay type: functional
[10] = molecular target: Ubiquitin carboxyl-terminal hydrolase BAP1 (Homo sapiens, UniProt Q92560); experiment: inhibition of BAP1 ubiquitin hydrolase activity – biochemical, dose response (AID 714); assay type: functional
H4 = experiment: Luminescence Cell-Based Dose Response HTS to Identify Activators of 5'UTR Stem-Loop Driven Prion Protein mRNA Translation in H4 Neuroglioblastoma Cells. [Related pubchem assays: 1829 (Project Summary), 1814 (Primary HTS)]; assay type: functional; conditions: Homo sapiens
[11] = molecular target: Voltage-gated inwardly rectifying potassium channel KCNH2 (Homo sapiens, UniProt Q12809); experiment: concentration-dependent hERG rescue from blockers – cell-based, thallium flux, dose response (AID 2121); assay type: ADME
[12] = Luminescence Cell-Based Dose Response HTS to Identify Activators of Luciferase Translation or Activity in H4 […] Cells. [Related pubchem assays: 1829 (Project Summary), 1814 (Primary HTS)]; assay type: functional
[13] = Luminescence Cell-Based Dose Confirmation HTS to Identify Activators of 5'UTR Stem-Loop Driven Alpha-Synuclein mRNA Translation in H4 Neuroglioblastoma Cells. [Related pubchem assays: 1829 (Project Summary), 1814 (Primary HTS)]; assay type: functional

Sequence of Voltage-gated inwardly rectifying potassium channel KCNH2 (Q12809 whole entry): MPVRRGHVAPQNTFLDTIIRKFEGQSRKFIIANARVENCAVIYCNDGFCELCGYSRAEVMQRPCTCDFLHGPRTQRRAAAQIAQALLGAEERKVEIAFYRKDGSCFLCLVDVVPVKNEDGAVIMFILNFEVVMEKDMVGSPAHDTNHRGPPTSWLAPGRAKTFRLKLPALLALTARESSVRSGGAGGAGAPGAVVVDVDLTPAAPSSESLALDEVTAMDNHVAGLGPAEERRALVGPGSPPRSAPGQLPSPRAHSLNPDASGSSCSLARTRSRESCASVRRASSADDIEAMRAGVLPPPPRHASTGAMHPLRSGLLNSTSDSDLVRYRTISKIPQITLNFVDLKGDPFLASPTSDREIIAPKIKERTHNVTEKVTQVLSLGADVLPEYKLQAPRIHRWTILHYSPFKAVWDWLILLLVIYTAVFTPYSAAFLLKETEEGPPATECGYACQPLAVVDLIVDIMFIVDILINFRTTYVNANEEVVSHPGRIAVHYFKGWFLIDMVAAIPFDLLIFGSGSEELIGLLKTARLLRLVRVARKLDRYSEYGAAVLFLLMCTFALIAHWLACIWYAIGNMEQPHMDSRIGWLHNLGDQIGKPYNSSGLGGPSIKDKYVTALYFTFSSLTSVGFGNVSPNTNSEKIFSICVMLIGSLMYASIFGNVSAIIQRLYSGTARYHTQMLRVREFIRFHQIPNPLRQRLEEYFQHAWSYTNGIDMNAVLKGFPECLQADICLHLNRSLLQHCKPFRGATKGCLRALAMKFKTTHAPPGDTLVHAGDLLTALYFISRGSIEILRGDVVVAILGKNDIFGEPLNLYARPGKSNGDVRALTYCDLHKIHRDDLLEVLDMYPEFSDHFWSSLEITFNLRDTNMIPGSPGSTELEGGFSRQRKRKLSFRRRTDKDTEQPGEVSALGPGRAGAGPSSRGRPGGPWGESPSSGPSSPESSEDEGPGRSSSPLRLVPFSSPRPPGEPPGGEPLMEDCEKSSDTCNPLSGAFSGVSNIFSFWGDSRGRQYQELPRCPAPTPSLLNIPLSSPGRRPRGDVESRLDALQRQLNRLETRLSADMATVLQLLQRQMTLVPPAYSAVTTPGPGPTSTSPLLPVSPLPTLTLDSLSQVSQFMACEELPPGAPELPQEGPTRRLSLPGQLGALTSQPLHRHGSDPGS
Sequence of Ubiquitin carboxyl-terminal hydrolase BAP1 (Q92560 whole entry): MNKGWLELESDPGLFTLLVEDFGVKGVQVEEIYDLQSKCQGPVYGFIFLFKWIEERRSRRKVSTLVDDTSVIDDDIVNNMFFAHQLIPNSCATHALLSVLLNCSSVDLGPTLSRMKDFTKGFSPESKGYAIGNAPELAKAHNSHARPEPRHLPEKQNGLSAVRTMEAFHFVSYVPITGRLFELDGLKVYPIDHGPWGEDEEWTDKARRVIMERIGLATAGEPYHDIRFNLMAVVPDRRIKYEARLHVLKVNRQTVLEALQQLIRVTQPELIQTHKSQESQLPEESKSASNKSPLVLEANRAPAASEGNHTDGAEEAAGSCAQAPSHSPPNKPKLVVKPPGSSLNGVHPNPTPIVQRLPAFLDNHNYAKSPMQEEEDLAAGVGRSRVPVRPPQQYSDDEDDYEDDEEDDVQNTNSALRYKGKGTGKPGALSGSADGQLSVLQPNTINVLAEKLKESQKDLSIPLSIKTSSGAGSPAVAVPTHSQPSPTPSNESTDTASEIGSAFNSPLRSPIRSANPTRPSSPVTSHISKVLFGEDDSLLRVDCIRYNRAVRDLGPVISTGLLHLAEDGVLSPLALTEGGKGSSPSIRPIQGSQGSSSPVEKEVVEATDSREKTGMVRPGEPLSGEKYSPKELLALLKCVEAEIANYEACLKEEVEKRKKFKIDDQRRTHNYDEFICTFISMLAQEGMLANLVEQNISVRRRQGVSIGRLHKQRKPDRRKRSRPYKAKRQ
Sequence of Diphosphomevalonate decarboxylase (Q9FD53 whole entry): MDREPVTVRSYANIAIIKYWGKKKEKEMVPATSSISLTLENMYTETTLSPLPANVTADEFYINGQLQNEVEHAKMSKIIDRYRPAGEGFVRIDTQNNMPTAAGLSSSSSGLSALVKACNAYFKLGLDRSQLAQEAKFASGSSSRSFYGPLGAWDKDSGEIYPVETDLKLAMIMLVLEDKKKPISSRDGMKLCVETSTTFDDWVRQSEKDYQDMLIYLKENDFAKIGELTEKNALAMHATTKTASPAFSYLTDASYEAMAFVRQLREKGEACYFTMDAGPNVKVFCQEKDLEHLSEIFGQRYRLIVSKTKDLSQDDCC

Compound: CN(C)c1ccc(-c2nn3c(-c4ccc(Cl)cc4Cl)nnc3s2)cc1
- IC50 (Bcl-2-related protein A1 [1]): > 100 µM (not active)
- IC50 (Bcl-2-related protein A1 [2]): > 100 µM (not active)

Compound: O=c1c2ccccc2nc(N/N=C/c2ccc(O)cc2)n1O
- EC50 [3]: > 300 µM (inconclusive)
- EC50 [4]: 14.3 µM (active)
- EC50 [5]: > 300 µM (not active)

Compound: O=C(Nc1ccc(Oc2ccc(Cl)cc2)cc1)Nc1ccc([N+](=O)[O-])cc1
- IC50 (NADPH oxidase 1): > 17 µM (not active)

Compound: Nc1cccc(-c2nc3cc(S(=O)(=O)c4ccc5oc(-c6cccc(N)c6)nc5c4)ccc3o2)c1
- IC50 [6]: 13.2 µM (active)

Compound: O=C(NCc1ccccc1)c1ccc(-n2sc3ccccc3c2=O)cc1
- IC50 [7]: 9.98 µM (active)

Compound: Cc1cc(-c2ccc(/C=N/n3cnnc3)o2)ccc1Cl
- CC50 [8]: > 50 µM (active)
- IC50 [9]: > 100 µM (active)

Compound: COc1ccc2nc(NC(=O)CCc3nc(-c4ccccc4F)no3)sc2c1
- IC50 [10]: 36.6 µM (not active)

Compound: CCOC(=O)c1sc(NC(=S)NC(=O)c2ccccc2)nc1C
- EC50 (H4): 25 µM (active)
- EC50 [11]: 3.68 µM (active)
- EC50 [12]: 7.98 µM (active)
- EC50 [13]: 17.6 µM (active)
